Reference: patent US11040106B2, “Conjugates of kinase inhibitors and cyanine dyes” (priority 2018, dated 2021)
Entries after “also recorded” stand apart in the source; their conditions may differ.

Assays:
[1] = system: U87-MG (Glioblastoma) cells as compared to HUVEC (normal cells); assay: Uptake by U87-MG cells as compared to HUVEC; assay type: cell-based, human
[2] = system: HEPG2 cells; assay: 1a in HEPG2 cells: morphology change and co-localization in organelles; assay type: cell-based
Description: FIG. 5A visualizes some of the data from FIGS. 4A and 4B (that on HEPG2 cells).
Localization of compounds in mitochondria tends to give more pronounced cytotoxicity effects than accumulation in most organelles.

[3] = system: U87-MG cells; assay: Cytotoxicity (cell viability) on U87-MG cells; assay type: cell-based; details: for cytotoxicity compared with parent dye, parent kinase inhibitor (and their mixture): U87-MG cells (glioblastoma)
[4] = system: HEPG2 cells; assay: Cytotoxicity (cell viability, MTT assay) on HEPG2 cells; assay type: cell-based; details: HEPG2 cells (liver cancer)
Procedure: Approximately 5000 HEPG2 cells/well were seeded on 96 well plate containing 10% fetal bovine serum. Cells were allowed to adhere overnight before test compounds were added. Stock solutions of 1a (0.02 M in DMSO) were diluted with protein-free medium (PFHM-II) to make desired final concentrations varying from 0.01 to 80 μM. The cells were incubated with the desired concentration for 48 h. The cell viabilities were calculated using MTT assay. Briefly, 20 μL of 3-(4,5-dimethylthiazol-2-yl)-2,5-diphenyltetrazolium bromide MTT (5 mg/mL, in Hank's balanced salt solution) were added and the cells were incubated for an additional 3.5 h. The medium was then removed, and […] of DMSO was added to dissolve the formazan crystal formed. The optical density of each well (at 570 nm) was measured with a BioTek Synergy 4 Microplate Reader. The viability of each cell line in response to the treatment with tested compounds was calculated as: % dead cells=100−(OD treated/OD control)×100.

[5] = system: MDA-MB-231 “triple negative” breast cancer cells; assay: Cytotoxicity (cell viability) on MDA-MB-231 cells; assay type: cell-based; details: MDA-MB-231 (breast cancer cells)
[6] = system: U87-MG glioblastoma cells; assay: Organelle localization of the fluors (confocal imaging); assay type: cell-based, human; details: 37° C., DMEM/F12 with 10% FBS pH 7.4; for localization after time (h) 0.5: 0.5 h; for localization after time (h) 24: 24 h
[7] = Photophysical properties; assay type: physicochemical; details: 10 mM PBS buffer pH 7.4
[8] = Solubility in water; assay type: physicochemical
Procedure: 1-NMe2 is water soluble up until 1000 μM whereas 1-CH2 precipitates at 100 μM.

[9] = target: T1, HSA (Homo sapiens, UniProt P02768); assay: Covalent binding / reaction of cyanines with HSA (LC/MS, ESI MS, NIR-fluorescent gel); details: HEPES buffer pH 7.4, 37° C.
Procedure: FIGS. 33A to 33D show kinetics of a, 1, c, 4, d, 5; e, 6 in 1 M HEPES buffer pH 7.4. […] The kinetics was examined on C, 18 column using Agilent 1200 series LC/MS at 600 nm.
FIGS. 34A and 34B show mass spectra of a, free HSA and b, 1 bound to HSA. HSA: 1 (2.5:1); buffer 1 M HEPES.
In a control experiment, human serum albumin (HSA) was reacted with 2.5 equivalents of 1-Cl at 37° C. in 1 M HEPES buffer. This 1-Cl:albumin molar ratio was selected because it is approximately that used in cell culture experiments to probe uptake of this dye.
To test this assertion the experimental design was modified in the following way.

[10] = system: U87-MG cells; assay: Uptake and colocalization of 1-Cl and 1-HSA (confocal); assay type: cell-based, human
Procedure: Colocalization with trackers for mitochondria, lysosome, ER and Golgi are featured. Images were taken using Zeiss confocal microscope at 60×/1.2 water immerse objective after 30 mins of incubation.
FIG. 43 are data from a set of experiments nearly identical to those in FIG. […]
Data in FIG. 42 should be compared with literature reports describing import of 1-Cl but in media containing albumin into various cells.

[11] = target: T1, HSA; assay: Covalent binding / reaction of cyanines with HSA (LC/MS, ESI MS, NIR-fluorescent gel)
[12] = Photostability under LED irradiation at 780 nm; assay type: physicochemical; details: PBS pH 7.4, LED 780 nm
Procedure: Initially, equimolar concentrations (20 μM) were used; QCy was reproducibly and more robust than the other two, but the difference was more than anticipated so the experimental design was suspected.

[13] = system: U87-MG cells; assay: Cytotoxicity of ICG, MHI-148 and QCy, 72 h in the dark, AlamarBlue; assay type: cell-based, human
Description: Cytotoxicity of QCy was studied using U87-MG cells (a glioblastoma multiforme line).

T1 sequence (P02768 25-609): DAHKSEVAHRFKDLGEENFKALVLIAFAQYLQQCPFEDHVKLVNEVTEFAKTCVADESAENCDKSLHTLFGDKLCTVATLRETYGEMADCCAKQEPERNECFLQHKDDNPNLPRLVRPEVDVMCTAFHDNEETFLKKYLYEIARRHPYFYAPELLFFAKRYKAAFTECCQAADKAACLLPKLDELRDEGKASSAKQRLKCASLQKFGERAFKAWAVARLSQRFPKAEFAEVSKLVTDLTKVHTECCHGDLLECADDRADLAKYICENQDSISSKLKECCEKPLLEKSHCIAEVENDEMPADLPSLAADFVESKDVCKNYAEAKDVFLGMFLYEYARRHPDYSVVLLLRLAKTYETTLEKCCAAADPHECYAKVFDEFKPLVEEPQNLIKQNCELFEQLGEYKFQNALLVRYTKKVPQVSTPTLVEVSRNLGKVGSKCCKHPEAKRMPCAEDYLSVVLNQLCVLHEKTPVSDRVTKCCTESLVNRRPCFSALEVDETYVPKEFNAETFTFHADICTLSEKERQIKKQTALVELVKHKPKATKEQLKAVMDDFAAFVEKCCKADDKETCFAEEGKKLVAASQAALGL

Cc1nc(Nc2ncc(C(=O)Nc3c(C)cccc3Cl)s2)cc(N2CCN(CCOC(=O)CCCCCN3C(=CC=C4CCCC(C=CC5=[N+](CCCCCC(=O)O)c6ccccc6C5(C)C)=C4Cl)C(C)(C)c4ccccc43)CC2)n1 [Compound 1a]
uptake by U87-MG cells compared to HUVEC [1]: localizes more in U87-MG cells than HUVEC cells | organelle localization ([2]; HEPG2): localizes preferentially in mitochondria | influence on cell morphology compared with dasatinib a ([2]; HEPG2, 24 and 48 h): much stronger influence on the cell morphology | cytotoxicity compared with parent dye, parent kinase inhibitor (and their mixture) [3]: more found to be toxic than individual 1, a or a combination of 1+a; also recorded: significantly more toxic than the parent dye, the parent kinase inhibitor, or a mixture of the dye and kinase inhibitor | cytotoxicity compared with ICG-COOH conjugate ([3]; U87-MG, 24 and 48 h): more toxic than ICG-COOH-a | cytotoxicity compared with parent dye, parent kinase inhibitor (and their mixture) [4]: more found to be toxic than individual 1, a or a combination of 1+a; also recorded: significantly more toxic than the parent dye, the parent kinase inhibitor, or a mixture of the dye and kinase inhibitor

CN(C)C(=O)c1cc2cnc(Nc3ccc(N4CCN(C(=O)CCCCCN5/C(=C/C=C6\CCCC(/C=C/C7=[N+](CCCCCC(=O)[O-])c8ccccc8C7(C)C)=C6Cl)C(C)(C)c6ccccc65)CC4)cn3)nc2n1C1CCCC1 [Compound 1c]
cytotoxicity compared with parent dye, parent kinase inhibitor (and their mixture) [5]: more found to be toxic than individual 1, c or a combination of 1+c; also recorded: significantly more toxic than the parent dye, the parent kinase inhibitor, or a mixture of the dye and kinase inhibitor

CC(=O)c1c(C)c2cnc(Nc3ccc(N4CCN(C(=O)CCCCCN5C(=CC=C6CCCC(C=CC7=[N+](CCCCS(=O)(=O)[O-])c8ccccc8C7(C)C)=C6Cl)C(C)(C)c6ccccc65)CC4)cn3)nc2n(C2CCCC2)c1=O [Compound 3b]
cytotoxicity compared with parent dye, parent kinase inhibitor (and their mixture) [3]: more toxic than b or 3

CC(Oc1cc(-c2cnn(C3CCN(C(=O)CCCCCN4C(=CC=C5CCCC(C=CC6=[N+](CCCCCC(=O)[O-])c7ccccc7C6(C)C)=C5Cl)C(C)(C)c5ccccc54)CC3)c2)cnc1N)c1c(Cl)ccc(F)c1Cl (stereo not shown) [Compound 1d]
cytotoxicity compared with parent dye, parent kinase inhibitor (and their mixture) [5]: more found to be toxic than individual 1, d or a combination of 1+d; also recorded: significantly more toxic than the parent dye, the parent kinase inhibitor, or a mixture of the dye and kinase inhibitor

Indocyanine green [ICG]
localization after time (h) 0.5 [6]: golgi and ER | localization after time (h) 24 [6]: golgi and lysosome

CC1(C)C(/C=C/C2=C(Cl)C(=C/C=C3\N(CCCCCC(=O)O)c4ccccc4C3(C)C)/CCC2)=[N+](CCCCCC(=O)O)c2ccccc21 [Compound 1]
brightness (εmax × Φ) [7]: 3689 | Δλ (Stokes' shift) [7]: 24 nm | εmax [7]: 149940 cm^−1M^−1 | λabs [7]: 775 nm | λem [7]: 799 nm | relative brightness ([7]; relative to ICG): 1.90 | Φ (fluorescence quantum yield) ([7]; standard A (Φ = 0.13 in DMSO)): 0.025 | localization after time (h) 0.5 [6]: mitochondria | localization after time (h) 24 [6]: mitochondria and lysosome | concentration at which it precipitates [8]: 100 µM | covalent binding / reaction with HSA [9]: showed an increase in peak with HSA; also recorded: HSA is bound to 1; also recorded: binds to HSA at cysteine 34 position | covalent binding / reaction with HSA ([9]; listed as 1-Cl): 1:1 covalent adduct and does combine with HSA | organelle colocalization after uptake ([10]; 20 μM, serum free media, 30 mins, listed as 1-Cl): localized in the mitochondria; also recorded: Most colocalization is seen with the mitochondria | organelle localization after uptake ([10]; media containing albumin): fluorescence was observed mostly in the mitochondria | binding to thiol-blocked HSA (TCEP, then 6-maleimide hexanoic acid) ([11]; 15 μM HSA, 15 μM dye): did not bind to 1-Cl | consumption in reaction with HSA ([11]; 0.5 mM HSA, 0.2 mM 1-Cl, 1 M HEPES pH 7.4, 37° C.): nearly all the 1-Cl is consumed after 72 h | photostability (in words) [12]: the least stable | IC50 [13]: 19.1 ± 1.01 µM

CC1(C)C(/C=C/C2=CC(=C/C=C3/N(CCCCCC(=O)O)c4ccccc4C3(C)C)/CCC2)=[N+](CCCCCC(=O)[O-])c2ccccc21 [Compound 4]
covalent binding / reaction with HSA [9]: did not bind | covalent binding / reaction with HSA ([9]; listed as 1-H): do not react with HSA

CC1(C)C(/C=C/C2=C(c3ccccc3)C(=C/C=C3/N(CCCCCC(=O)O)c4ccccc4C3(C)C)/CCC2)=[N+](CCCCCC(=O)[O-])c2ccccc21 [Compound 6]
covalent binding / reaction with HSA ([9]; listed as 1-Ph): do not react with HSA

CC1=C(/C=C/C2=[N+](CCCCCC(=O)[O-])c3ccccc3C2(C)C)CCC/C1=C\C=C1\N(CCCCCC(=O)O)c2ccccc2C1(C)C [Compound 5]
covalent binding / reaction with HSA [9]: did not bind | covalent binding / reaction with HSA ([9]; listed as 1-Me): do not react with HSA
